Paper PMC201021 (Malaria Journal, 2003)
Entries after “also recorded” stand apart in the source; their conditions may differ.

Tests used:
[1] = tested on: haematin dimerization to β-haematin; assay: β-Haematin Inhibitory Activity; assay type: biochemical; settings: 10 fold molar excess of drug
[2] = tested on: haematin dimerization to β-haematin; settings: cited from earlier work

Row | SMILES | inhibition of the BHIA haematin dimerization reaction (in words) [1] | inhibition of spontaneous haematin dimerization to β-haematin in vitro [2] | inhibition of the BHIA haematin dimerization reaction (in words) ([1]; listed as PM)
1 | COc1ccc(CCN(C)CCCC(C#N)(c2ccc(OC)c(OC)c2)C(C)C)cc1OC (centres unmarked) [VE, Verapamil] | Significant inhibition was not seen; also recorded: no significant interaction | – | –
2 | C=C[C@H]1CN2CC[C@H]1C[C@@H]2C(O)c1ccnc2ccc(OC)cc12 (some centres unmarked) [Q, 6'-methoxy cinchonan-9-ol] | activity; also recorded: inhibited | inhibits | –
3 | C=C[C@H]1C[N@@]2CC[C@H]1C[C@@H]2[C@@H](O)c1ccnc2ccccc12 [C, cinchonine] | activity; also recorded: inhibited | – | –
4 | CC(CN1c2ccccc2Sc2ccccc21)N(C)C (centres unmarked) [PMZ, promethazine] | Significant inhibition was not seen | – | no significant interaction
5 | C=C[C@H]1C[N@@]2CC[C@H]1C[C@@H]2[C@@H](O)c1ccnc2ccc(OC)cc12 [QD, quinidine] | activity; also recorded: inhibited | – | –
6 | CC[C@H]1CN2CC[C@H]1C[C@@H]2[C@@H](O)c1ccnc2ccc(OC)cc12 [HQD, hydroquinidine] | activity; also recorded: inhibited | – | –
7 | CC[C@H]1CN2CC[C@H]1C[C@H]2[C@H](O)c1ccnc2ccc(OC)cc12 [HQ, hydroquinine] | activity; also recorded: inhibited | – | –
8 | C=C[C@H]1CN2CC[C@H]1C[C@H]2[C@H](O)c1ccnc2ccccc12 [CD, cinchonidine] | activity; also recorded: inhibited | – | –
9 | CCN(CC)CCCC(C)Nc1ccnc2cc(Cl)ccc12 (centres unmarked) [CQ, chloroquine] | inhibited | – | –
